From patent US12692262B2, “Substituted ureas as orexin receptor agonists” (Merck Sharp & Dohme LLC, priority 2020, dated 2026)

Target: T1, human OX2R (Homo sapiens, UniProt O43614)
T1 construct: expressed in transfected cells; host or cells: CHO (Chinese hamster ovary) cells grown under G418 selection
T1 sequence (O43614 1-444): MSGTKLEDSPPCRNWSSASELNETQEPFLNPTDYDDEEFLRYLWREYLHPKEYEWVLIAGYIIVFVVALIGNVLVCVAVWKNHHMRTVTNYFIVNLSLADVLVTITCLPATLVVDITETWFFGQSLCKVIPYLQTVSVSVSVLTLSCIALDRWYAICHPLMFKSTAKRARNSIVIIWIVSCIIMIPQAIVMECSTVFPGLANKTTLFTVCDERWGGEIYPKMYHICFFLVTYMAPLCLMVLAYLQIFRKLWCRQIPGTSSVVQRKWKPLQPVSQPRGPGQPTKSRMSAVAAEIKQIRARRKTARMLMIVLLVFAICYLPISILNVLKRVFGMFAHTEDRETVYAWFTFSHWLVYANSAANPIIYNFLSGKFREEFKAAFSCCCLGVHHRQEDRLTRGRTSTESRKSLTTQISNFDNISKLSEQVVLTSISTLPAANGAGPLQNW
Experiment: IPOne (IP-1 accumulation) assay in CHO cells expressing human OX2R
Assay type: cell-based
Details: for EC50: CHO cells expressing human OX2R, IP-One assay, 2 h incubation, four parameter logistic fit, read-out: OX2R Potency, EC50; for % of maximum agonist effect (relative to Orexin A): percent effect vs mean max effect of a reference compound at 1 uM (100% activity vs Orexin A), human OX2R
Summary of the method: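 Agonist EC50 values come from the inflection point of four-parameter logistic curves. Read-out is IP-1 accumulation detected with lysis buffer plus D2 and AB-cryptate reagents (HTRF), in CHO cells engineered to express human OX2R.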

Row | SMILES | EC50 [nM] | % of maximum agonist effect (relative to Orexin A) [%]
1 | CCN(C(=O)N[C@@H](CCC(F)(F)F)C(F)(F)F)C(c1cc(-c2cn3c(C#N)cnc3c(OC)n2)c(OC)cn1)C(F)(F)F (stereo partly drawn) [Example 10-12, 1-(1-(4-(3-cyano-8-methoxyimidazo[1,2-a]pyrazin-6-yl)-5-methoxypyridin-2-yl)-2,2,2-trifluoroethyl)-1-ethyl-3-((S)-1,1,1,5,5,5-hexafluoropentan-2-yl)urea] | 70.1 | 100.5
2 | CCN(C(=O)N[C@@H](CCC(F)(F)F)C(F)(F)F)C(c1cnc(OC)c(-c2cn3ccnc3c(OC)n2)n1)C(F)(F)F (stereo partly drawn) [Example 10-5, 1-ethyl-3-((S)-1,1,1,5,5,5-hexafluoropentan-2-yl)-1-(2,2,2-trifluoro-1-(5-methoxy-6-(8-methoxyimidazo[1,2-a]pyrazin-6-yl)pyrazin-2-yl)ethyl)urea] | 2.5 | 101.6
3 | CCN(C(=O)NC[C@H]1COCC(=O)N1)[C@H](C)c1cccc(-c2cn3ccnc3c(OC)n2)c1 [Example 1-6, 1-ethyl-1-((R)-1-(3-(8-methoxyimidazo[1,2-a]pyrazin-6-yl)phenyl)ethyl)-3-(((S)-5-oxomorpholin-3-yl)methyl)urea] | 193 | 99.0
4 | CCC(CCC(F)(F)F)NC(=O)N(CC)[C@H](C)c1cccc(-c2cnc3nccn3c2)c1 (stereo partly drawn) [Example 8-7, 1-ethyl-1-((R)-1-(3-(imidazo[1,2-a]pyrimidin-6-yl)phenyl)ethyl)-3-(6,6,6-trifluorohexan-3-yl)urea] | 180 | 99.3
5 | CCN(C(=O)N[C@@H](CCC(F)(F)F)C(F)(F)F)[C@H](C)c1cc(-c2cc(OC)c3ncoc3c2)c(OC)cn1 [Example 9-4, 1-ethyl-3-((S)-1,1,1,5,5,5-hexafluoropentan-2-yl)-1-((R)-1-(5-methoxy-4-(4-methoxybenzo[d]oxazol-6-yl)pyridin-2-yl)ethyl)urea] | 7.5 | 99.6
6 | CCN(C(=O)N[C@@H](CCC(F)(F)F)C(F)(F)F)C(c1cc(-c2cn3ccnc3c(OC)n2)c2nccn2c1)C(F)(F)F (stereo partly drawn) [Example 2-14, 1-ethyl-3-((S)-1,1,1,5,5,5-hexafluoropentan-2-yl)-1-(2,2,2-trifluoro-1-(8-(8-methoxyimidazo[1,2-a]pyrazin-6-yl)imidazo[1,2-a]pyridin-6-yl)ethyl)urea] | 8.7 | 100.1
7 | CCN(C(=O)N[C@@H](CCC(F)(F)F)C(F)(F)F)[C@H](C)c1cnc(OC)c(-c2cn3ccnc3c(OC)n2)c1 [Example 11-4, 1-ethyl-3-((S)-1,1,1,5,5,5-hexafluoropentan-2-yl)-1-((R)-1-(6-methoxy-5-(8-methoxyimidazo[1,2-a]pyrazin-6-yl)pyridin-3-yl)ethyl)urea] | 0.7 | 101.6
8 | CCN(C(=O)NC(c1cccc(F)c1)C(F)(F)F)[C@@H](c1cccc(-c2cn3ccnc3c(OC)n2)c1)C(F)(F)F (stereo partly drawn) [Example 2-66, 1-ethyl-1-((S)-2,2,2-trifluoro-1-(3-(8-methoxyimidazo[1,2-a]pyrazin-6-yl)phenyl)ethyl)-3-(2,2,2-trifluoro-1-(3-fluorophenyl)ethyl)urea] | 5.2 | 97.2
9 | CCN(C(=O)N[C@@H](CCC(F)(F)F)C(F)(F)F)[C@@H](c1cc(-c2cc3scnc3c(OC)n2)c(OC)cn1)C(F)(F)F [Example 10-8, 1-ethyl-3-((S)-1,1,1,5,5,5-hexafluoropentan-2-yl)-1-((S)-2,2,2-trifluoro-1-(5-methoxy-4-(4-methoxythiazolo[4,5-c]pyridin-6-yl)pyridin-2-yl)ethyl)urea] | 2.3 | 100.7
10 | CCN(C(=O)N[C@@H](CCC(F)(F)F)C(F)(F)F)[C@H](C)c1cc(-c2cn3ccnc3c(OC)n2)c(OC)cn1 [Example 12-1, 1-ethyl-3-((S)-1,1,1,5,5,5-hexafluoropentan-2-yl)-1-((R)-1-(5-methoxy-4-(8-methoxyimidazo[1,2-a]pyrazin-6-yl)pyridin-2-yl)ethyl)urea] | 0.6 | 100.1
